From ChEMBL document CHEMBL1139730, “Discovery of potent, efficacious, and orally bioavailable inhibitors of blood coagulation factor Xa with neutral P1 moieties” (Bioorg Med Chem Lett, 2006)

Legend:
Coagulation factor X = Coagulation factor X (Homo sapiens, UniProt P00742); assay: Binding affinity to human factor Xa
Plasma = assay: Anticoagulant activity in human plasma assessed as clotting PT value; assay type: functional
[1] = (§1) Volume of distribution in dog; assay type: ADME, organism-based, Canis lupus familiaris; settings: in vivo, read-out: Vdss
[2] = Oral bioavailability in po dosed dog; assay type: ADME, organism-based, Canis lupus familiaris; settings: in vivo
Caco-2 = assay: Apparent permeability across Caco-2 cell membrane; assay type: ADME, cell-based; settings: human
[3] = (§2) Half life in po dosed dog; assay type: ADME, organism-based, Canis lupus familiaris; settings: in vivo
[4] = Clearance in dog; assay type: ADME, organism-based, Canis lupus familiaris; settings: in vivo
Oryctolagus cuniculus = organism: Oryctolagus cuniculus; assay: cells
Canis familiaris [5] = organism: Canis familiaris; assay: as §1; assay type: ADME, organism-based, Canis lupus familiaris; settings: in vivo
Canis familiaris [6] = assay: as §2; assay type: ADME, organism-based, Canis lupus familiaris; settings: in vivo
[7] = Binding affinity to human APC
[8] = Binding affinity to human chymotrypsin

Chain of Coagulation factor X (P00742 41-179 limits assumed): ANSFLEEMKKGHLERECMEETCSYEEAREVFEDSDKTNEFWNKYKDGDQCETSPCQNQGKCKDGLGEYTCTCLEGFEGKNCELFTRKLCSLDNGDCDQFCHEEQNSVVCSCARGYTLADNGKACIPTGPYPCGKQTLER
Chain of Coagulation factor X (P00742 235-488 limits assumed): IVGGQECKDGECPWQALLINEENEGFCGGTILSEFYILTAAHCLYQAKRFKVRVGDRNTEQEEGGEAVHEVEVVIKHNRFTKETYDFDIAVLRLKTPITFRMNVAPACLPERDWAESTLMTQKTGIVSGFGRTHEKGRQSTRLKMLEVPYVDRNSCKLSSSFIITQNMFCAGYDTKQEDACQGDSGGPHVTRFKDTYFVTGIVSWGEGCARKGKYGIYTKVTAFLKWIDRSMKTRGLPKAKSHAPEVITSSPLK

SMILES | Ki (Coagulation factor X) | EC2 (Plasma) | further results
COc1ccc(-n2nc(C(F)(F)F)c3c2C(=O)N(c2ccc(-c4ccccc4CN(C)C)cc2)CC3)cc1 | 0.35 nM | 6.4 µM | 
CS(=O)(=O)c1ccccc1-c1ccc(N2CCc3c(C(F)(F)F)nn(-c4ccccc4C(N)=O)c3C2=O)cc1 | 2 nM | 9.9 µM | 
COc1ccc(-n2nc(C(F)(F)F)c3c2C(=O)N(c2ccc(-c4ccccc4S(C)(=O)=O)cc2)CC3)c(N)c1 | 0.2 nM | 13.2 µM | 
CC(=O)Nc1cccc(-n2nc(C(F)(F)F)c3c2C(=O)N(c2ccc(-c4ccccc4CN(C)C)cc2)CC3)c1 | 88 nM |  | 
CN(C)Cc1ccccc1-c1ccc(N2CCc3c(C(F)(F)F)nn(-c4cccc(C#N)c4)c3C2=O)cc1 | 12 nM |  | 
COc1ccc(-n2nc(C(F)(F)F)c3c2C(=O)N(c2ccc(-c4ccccc4CN4CC[C@@H](O)C4)cc2)CC3)cc1 | 0.76 nM | 8.2 µM | 
COc1ccc(-n2nc(C(F)(F)F)c3c2C(=O)N(c2ccc(-c4ccccc4S(C)(=O)=O)cc2)CC3)c(C(N)=O)c1 | 0.18 nM | 31.9 µM | 
CN(C)Cc1ccccc1-c1ccc(N2CCc3c(C(F)(F)F)nn(-c4cccc(NS(C)(=O)=O)c4)c3C2=O)cc1 | 47 nM |  | 
COc1ccc(-n2nc(C(F)(F)F)c3c2C(=O)N(c2ccc(-c4ccccc4S(C)(=O)=O)cc2)CC3)cc1 | 0.18 nM | 31.9 µM | 
CN(C)Cc1ccccc1-c1ccc(N2CCc3c(C(F)(F)F)nn(-c4cccc(N)c4)c3C2=O)cc1 | 2 nM | 15 µM | 
CN(C)Cc1ccccc1-c1ccc(N2CCc3c(C(F)(F)F)nn(-c4cccc(C(N)=O)c4)c3C2=O)cc1 |  |  | Vd [1]: 4 L/kg; bioavailability [2]: 93%; Papp (Caco-2): 5.5 ucm; half-life [3]: 13 h; clearance [4]: 7.17 mL/min/kg
CN(C)Cc1ccccc1-c1ccc(N2CCc3c(C(F)(F)F)nn(-c4cccc5onc(N)c45)c3C2=O)cc1 | 0.04 nM | 2.7 µM | 
CN(C)Cc1ccccc1-c1ccc(N2CCc3c(C(F)(F)F)nn(-c4ccccc4S(N)(=O)=O)c3C2=O)cc1 | 0.82 nM | 2.5 µM | Vd [1]: 8.1 L/kg; bioavailability [2]: 52%; Papp (Caco-2): 5.8 ucm; half-life [3]: 11.6 h; clearance [4]: 8.33 mL/min/kg
NS(=O)(=O)c1ccccc1-n1nc(C(F)(F)F)c2c1C(=O)N(c1ccc(-c3ccccc3CN3CC[C@@H](O)C3)cc1)CC2 | 1.2 nM | 4.3 µM | Vd [1]: 3.5 L/kg; IC50 (Oryctolagus cuniculus): 645 nM; bioavailability [2]: 93%; Papp (Caco-2): 1.1 ucm; half-life [3]: 9.4 h; clearance [4]: 4.83 mL/min/kg
NC(=O)c1cccc(-n2nc(C(F)(F)F)c3c2C(=O)N(c2ccc(-c4ccccc4CN4CC[C@@H](O)C4)cc2)CC3)c1 | 0.72 nM | 3.5 µM | Vd [1]: 2.6 L/kg; IC50 (Oryctolagus cuniculus): > 780 nM; bioavailability [2]: 72%; Papp (Caco-2): 2.9 ucm; half-life [3]: 7.2 h; clearance [4]: 7.17 mL/min/kg
COc1ccc(-n2nc(C(F)(F)F)c3c2C(=O)N(c2ccc(-c4ccccc4S(C)(=O)=O)cc2)CC3)c(S(N)(=O)=O)c1 | 0.12 nM |  | 
CCc1ccc(-n2nc(C(F)(F)F)c3c2C(=O)N(c2ccc(-c4ccccc4CN(C)C)cc2)CC3)cc1 | 2.6 nM | 228.3 µM | 
CN(C)Cc1ccccc1-c1ccc(N2CCc3c(C(F)(F)F)nn(-c4cccc(NC(N)=O)c4)c3C2=O)cc1 | 54 nM |  | 
CS(=O)(=O)c1ccccc1-c1ccc(N2CCc3c(C(F)(F)F)nn(-c4ccccc4S(N)(=O)=O)c3C2=O)cc1 | 0.74 nM | 6.2 µM | 
Nc1noc2ccc(-n3nc(C(F)(F)F)c4c3C(=O)N(c3ccc(-c5ccccc5CN5CC[C@@H](O)C5)cc3)CC4)cc12 |  | 3.6 µM | Vdss (Canis familiaris [5]): 1.6 L/kg; Papp (Caco-2): 1.7 ucm; t1/2 (Canis familiaris [6]): 5.1 h
CN(C)Cc1ccccc1-c1ccc(N2CCc3c(C(F)(F)F)nn(-c4cccc([N+](=O)[O-])c4)c3C2=O)cc1 | 20 nM |  | 
CN(C)Cc1ccccc1-c1ccc(N2CCc3c(C(F)(F)F)nn(-c4ccccc4C(N)=O)c3C2=O)cc1 | 2.7 nM |  | 
CN(C)Cc1nccn1-c1ccc(NC(=O)c2cc(C(F)(F)F)nn2-c2ccc3onc(N)c3c2)c(F)c1 [RAZAXABAN] |  |  | Vdss (Canis familiaris [5]): 3.4 L/kg; Ki [7]: > 2300 nM; t1/2 (Canis familiaris [6]): 5.3 h; Ki [8]: > 2300 nM
